Experiments:
[1] = target: T1, BTK wild-type (Homo sapiens, UniProt Q06187); test: Fluorescent labelling of wild-type BTK in HEK293 cells; type: cell-based; details: 1 h
T1 construct: expressed in transfected cells; host or cells: HEK293 (methods list HEK293T)
From the text: (§1) The antibodies to β-actin (5125), poly(ADP-ribose) polymerase (PARP) (9532S), cleaved caspase-3 (9661S), BTK (8547), PLCγ2(55512), ERK1/2 (9107), phospho-PLCγ2 (Tyr1217) (3871), phospho-BTK (Tyr223) (87457), and ERK1/2 pT202/pY204 (4377) were purchased from Cell Signaling Technology. An Annexin V-PE Apoptosis Detection Kit (555763), and PE mouse anti-human CD69 (555531), PE mouse anti-human CD3 (555340), and PE mouse anti-human CD19 (561741) were purchased from BD Bioscience. Dynabeads® Human T-Activator CD3/CD28 (11161D) was purchased from Life Technology. Goat anti-human IgM F(ab)2 (2022) was purchased from SouthernBiotech. An HTRF® KinEASE™-TK Kit (62TK0PEC) was purchased from Cisbio. […]
(§2) Cells were treated as indicated before the addition of a fluorescent probe (FL-SY-1530). […] After scanning, the gels were detected with Western blot.
(§3) Figure 2 Irreversible targeting of BTK by SY-1530. […] (B) The content of the compounds was measured with LC-MS/MS after incubation with BTK for 4 h. […] (D) DOHH2 cells were treated with various concentrations of FL-SY-1530 for 1 h, after which cells were lysed and analyzed by SDS-PAGE with the indicated antibodies and fluorescent gel scanning with a Typhoon imaging system. […] (F) HEK293 cells expressing wild-type or C481A mutant BTK were treated with FL-SY-1530 or FL-ibrutinib for 1 h, and the cells were then lysed and analyzed. […]

[2] = target: T2, BTK C481A mutant (Homo sapiens, UniProt Q06187, C481A); test: Fluorescent labelling of BTK C481A mutant in HEK293 cells; type: cell-based; details: 1 h
T2 construct: expressed in transfected cells; host or cells: HEK293 (methods list HEK293T)
T2 sequence (Q06187 whole entry C481A): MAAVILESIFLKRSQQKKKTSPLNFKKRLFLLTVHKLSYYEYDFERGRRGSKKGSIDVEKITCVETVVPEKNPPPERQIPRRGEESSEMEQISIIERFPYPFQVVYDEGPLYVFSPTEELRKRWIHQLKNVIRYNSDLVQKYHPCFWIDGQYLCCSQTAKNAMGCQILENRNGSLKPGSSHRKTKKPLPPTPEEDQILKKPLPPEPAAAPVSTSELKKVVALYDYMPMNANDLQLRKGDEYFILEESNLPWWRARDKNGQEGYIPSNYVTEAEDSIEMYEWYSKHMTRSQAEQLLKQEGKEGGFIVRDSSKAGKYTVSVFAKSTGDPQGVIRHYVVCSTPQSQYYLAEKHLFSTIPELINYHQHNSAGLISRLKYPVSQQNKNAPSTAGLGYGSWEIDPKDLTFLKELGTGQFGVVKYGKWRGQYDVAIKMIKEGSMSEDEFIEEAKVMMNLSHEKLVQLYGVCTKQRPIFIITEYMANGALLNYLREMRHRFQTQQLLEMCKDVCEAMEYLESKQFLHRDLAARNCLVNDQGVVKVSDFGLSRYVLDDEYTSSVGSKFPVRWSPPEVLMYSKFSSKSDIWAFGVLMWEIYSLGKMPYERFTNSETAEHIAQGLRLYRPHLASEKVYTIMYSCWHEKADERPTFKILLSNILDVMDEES
From the text: as §1, §2, §3

[3] = tested on: TMD8; test: Cell viability assay (CellTiter-Blue), TMD8; type: cell-based, human; details: Homo sapiens, TMD8, read-out: IC50 (nM), growth of TMD8
Description: (§4) Cells were seeded on 96-well plates (9,000 cells/well), cultured at 37 °C in 5% CO2 overnight, and incubated with different concentrations of compounds for 3 or 7 days. Then the cells were stained with CellTiter-Blue® reagent (Promega) for 4 h at 37 °C. The fluorescence signals were detected with a FlexStation 3, and the IC50 values of each compound were determined with GraFit software (Version 6.0).

[4] = tested on: Pfeiffer; test: Cell viability assay (CellTiter-Blue), Pfeiffer; type: cell-based, human; details: Homo sapiens; Pfeiffer cells; read-out: IC50 (nM), growth of Pfeiffer
Description: as §4

[5] = tested on: B cell; test: Cell viability assay (CellTiter-Blue), human B cells; type: cell-based; details: B-cell, read-out: IC50 (nM), growth of B cell
Description: as §4
(§5) CD19^+ B (>80% purity) and CD3^+ T (>90% purity) cells were purified with human B cell enrichment cocktail and human T cell enrichment cocktail (Stem Cell Technology), respectively. Cells were seeded on 12-well plates and incubated with different concentrations of BTK inhibitors for 1 h. B cells were stimulated with 50 µg/mL anti-human IgM F(ab′)2, and T cells were stimulated with 50 µg/mL anti-CD3/CD28 beads overnight. In the washout groups, the cell medium containing the indicated inhibitors was replaced with fresh medium before stimulation. Then cells were then incubated with anti-human CD69 for 1 h and analyzed with a Guava flow cytometer.

[6] = tested on: T cell; test: Cell viability assay (CellTiter-Blue), human T cells; type: cell-based; details: T-cell, read-out: IC50 (nM), growth of T cell
Description: as §4, §5

[7] = tested on: human peripheral B cells; test: CD69 up-regulation in B cells after anti-IgM stimulation; type: cell-based
Description: as §5
(§6) Figure 4 SY-1530 blocks B-cell receptor signaling and induces apoptosis. (A–D) Human B and T cells were purified and incubated with different concentrations of BTK inhibitors for 1 h. B cells were stimulated with 50 μg/mL anti-human IgM F(ab′)2, and T cells were stimulated with 50 μg/mL anti-CD3/CD28 beads overnight directly or after washout of BTK inhibitors before stimulation. The percentage of CD69 positive cells was analyzed by flow cytometry. Data are shown as the mean ± SEM (n = 3). Statistical analysis was performed with Student’s t-test (*P < 0.05, **P < 0.01, ***P < 0.001). (E) Pfeiffer cells and Romas cells were preincubated with different concentrations of compounds for 1 h, washed with PBS, and then stimulated with anti-IgM/anti-IgG (10 μg/mL) for 10 min. Cells were lysed and analyzed by Western blot with the indicated antibodies. (F) Pfeiffer cells were treated with various concentrations of SY-1530 for 24 h. The cells were stained with both PE-Annexin and 7-AAD and analyzed by flow cytometry. Data are shown as the mean ± SEM (n = 3). Statistical analysis was performed with Student’s t-test (*P < 0.05, **P < 0.01). (G) Pfeiffer cells were incubated with BTK inhibitors in the presence of z-VAD-fmk (caspase inhibitor) or DMSO for 24 h. Cells were lysed and analyzed with specific antibodies.

[8] = tested on: human peripheral T cells; test: CD69 up-regulation in T cells after anti-CD3/CD28 stimulation; type: cell-based
Description: as §5, §6

[9] = tested on: TMD8 xenografts; test: TMD8 tumor xenograft in SCID mice; type: in vivo
Description: TMD8 cells (1.0 × 10^7 cells in 100 µL of serum-free medium containing 40% Matrigel) were injected subcutaneously into SCID mice (6–8 weeks of age), and the tumor volume was monitored twice per week. […] The compounds were formulated in 0.5% methylcellulose containing 0.1% sodium lauryl sulfate. Tumor size and body weight were measured twice per week. All experiments were approved by the institutional animal care and use committee of Shouyao Holdings and were performed in accordance with the guidelines in the U.S. National Institutes of Health Guide for the Care and Use of Laboratory Animals (Approval No. CTA-2015063).
Figure 5 SY-1530 inhibits B-cell malignancy in vivo. (A–D) TMD8 cells were injected subcutaneously into SCID mice (6–8 weeks of age; 8 mice per group). […] Tumor size (A) and body weight (B) were measured […]. On the last day, mice were sacrificed 2.5 h after administration. LC-MS/MS was performed to measure the concentration of SY-1530 in plasma (C), and tumor samples were collected and analyzed with Western blot (D). QD represents administration once daily. Data are shown as mean ± SEM. Statistical analysis was performed with two-way analysis of variance (*P < 0.05; **P < 0.01; ***P < 0.001). […] Tumor size (E), body weight (F), SY-1530 concentration in the plasma (G), and protein expression in tumors (H) were measured. Data are shown as mean ± SEM. Statistical analysis was performed with two-way analysis of variance (*P < 0.05; **P < 0.01; ***P < 0.001).

T1 sequence (Q06187 whole entry): as the sequence (Q06187 whole entry C481A) above, with A481C counted along it

SMILES | Binding of labelled compound to wild-type BTK [1] | Binding of labelled compound to BTK C481A mutant [2] | IC50 [3] [nM] | IC50 [4] [nM] | IC50 [5] [nM] | IC50 [6] [nM] | Up-regulation of CD69 in B cells after anti-IgM ([7]; continuous exposure, 10 nM) | Up-regulation of CD69 in B cells after anti-IgM ([7]; inhibitors washed out before BCR stimulation) | Up-regulation of CD69 in T cells ([8]; after washout of BTK inhibitors) | CD69 up-regulation after T cell receptor stimulation ([8]; continuous exposure, 10 µM) | Mouse bodyweight ([9]; BID groups) | Tumor growth versus vehicle treated group ([9]; BID, SY-1530 30 or 10 mg/kg, ibrutinib 30 mg/kg)
CC1=CC(C)=[N+]2C1=Cc1ccc(CCC(=O)NCCN3CCN(CC=CC(=O)N4CCC(n5nc(-c6ccc(Oc7ccccc7)cc6)c(C(N)=O)c5N)C4)CC3)n1[B-]2(F)F (centres unmarked) [FL-SY-1530] | bound the wild-type BTK | not the C481A mutant |  |  |  |  |  |  |  |  |  | 
CC1=CC(C)=[N+]2C1=Cc1ccc(CCC(=O)NCCN3CCN(CC=CC(=O)N4CCCC(n5nc(-c6ccc(Oc7ccccc7)cc6)c6c(N)ncnc65)C4)CC3)n1[B-]2(F)F (centres unmarked) [FL-ibrutinib, reference compound] | bound the wild-type BTK | not the C481A mutant |  |  |  |  |  |  |  |  |  | 
C=CC(=O)N1CCC[C@@H](n2nc(-c3ccc(Oc4ccccc4)cc3)c3c(N)ncnc32)C1 [ibrutinib, reference compound] |  |  | 17.3 | 45.9 | 0.85 | 1000 to 10000 | completely abolished | blocked | not affected | significantly abrogated | moderate decrease | dramatically lower

Source: publication PMC9334755 (Cancer Biology & Medicine, 2021)
